Experimental findings from patent publication US8816070B2, “Triazole derivative as an HSP 90 inhibitor” (Merck Patent GmbH, priority 2007, dated 2014) are described below.

One data set addresses T1, Recombinant human HSP90α (Homo sapiens, UniProt P07900).
T1 construct: host or cells: E. coli
The experiment in a line: HSP90 radioligand filter binding test ([3H]17AAG competition). The text has this: The binding of geldanamycin or 17-allylamino-17-demethoxygeldanamycin (17AAG) to HSP90 and competitive inhibition thereof can be utilised in order to determine the inhibitory activity of the compounds according to the invention (Carreras et al. 2003, Chiosis et al. 2002).
In the specific case, a radioligand filter binding test is used. The radioligand used here is tritium-labelled 17-allylaminogeldanamycin, [3H]17AAG. This filter binding test allows a targeted search for inhibitors which interfere with the ATP binding site.
Recombinant human HSP90α (E. coli expressed, 95% purity); [3H]17AAG (17-allylaminogeldanamycin, [allylamino-2,3-^3H. Specific activity: 1.11×10^12 Bq/mmol (Moravek, MT-1717);
HEPES filter buffer (50 mM HEPES, pH 7.0, 5 mM MgCl2, BSA 0.01%) Multiscreen FB (1 μm) filter plate (Millipore, MAFBNOB 50).
The 96-well microtitre filter plates are firstly irrigated and coated with 0.1% of polyethylenimine.
At the end of the reaction, the supernatant in the filter plate is removed by suction with the aid of a vacuum manifold (Multiscreen Separation System, Millipore), and the filter is washed twice.
The filter plates are then measured in a beta counter (Microbeta, Wallac) with scintillator (Microscint 20, Packard).
“% of control” is determined from the “counts per minutes” values and the IC50 value of a compound is calculated therefrom.

The nature of data set [1]: Relative stability of polymorphic forms of C1. To be noted: form A1 versus form A2 of C1. It counts as physicochemical. From the text: Two polymorphic forms A1 and A2 of the compound “C1” according to the invention can be isolated.
Form A2 can be converted into A1, for example by stirring in solvents such as methanol, ethanol, acetone, DMF, acetic acid, formic acid, THF or isopropanol.

Take `CCCCN(C)C(=O)c1cc(-c2n[nH]c(=O)n2-c2ccccc2C)c(O)cc1O` [Compound C1, 5-[4-(2-methylphenyl)-3-hydroxy-4H-1,2,4-triazol-5-yl]-2,4-dihydroxy-N-methyl-N-butylbenzamide]: the “higher activity in HSP90 inhibition compared with "A47"” value on Recombinant human HSP90α (C1 versus A47 from the closest prior art) is “approximately 10 times”. Further, the IC50 – broadly, the concentration at which inhibition is half-maximal – at Recombinant human HSP90α ([3H]17AAG 0.08 μM, 22° C., 30 min, read-out: HSP90 inhibition IC50) is 29 nM.
Take `CCCCN(C)C(=O)c1cc(-c2nnc(O)n2-c2ccccc2C)c(O)cc1O` [Form A1, 5-[4-(2-methylphenyl)-3-hydroxy-4H-1,2,4-triazol-5-yl]-2,4-dihydroxy-N-methyl-N-butylbenzamide]: in data set [1], the “thermodynamic stability of polymorphic form” value is on record as “thermodynamically more stable form”.
